In US12377100B2 (GILEAD SCIENCES, INC., priority 2015, dated 2025) one finds AC50 and CC50 data, which are given here for 24 compounds.

One series relates to IFNα. Kind of series: PBMC cytokine profiling assay, IFNα induction. Format: cell-based. To be noted: human PBMCs, 24 hours incubation. In short, it runs like this: (§1)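 Cryopreserved healthy-donor human PBMCs (100k cells/well) were exposed for 24 h at 37 °C to a 10-point half-log compound series in 0.5% final DMSO. Secreted cytokines in the conditioned medium were quantified by MSD electrochemiluminescence, with TNFα samples diluted 1:9. AC50 was fitted by non-linear regression on percent activation normalised to plate controls.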

A further series deals with MRC-5 cells. Kind of series: Cytotoxicity assay, MRC-5 cells, Cell Titer Glo, 5 days. The format is cell-based, human. As to conditions: MRC-5, five days incubation, intracellular ATP; read-out: CC50 MRC5 CTG 5D. From the text:
(§2) To assess potential off-target toxicity of certain compounds disclosed herein, the in vitro cytotoxicity of those compounds was profiled using a panel of 5 cell lines with various tissue origins. Compound cytotoxicity was examined in hepatoma-derived Huh-7 and HepG2 cells, prostate carcinoma-derived PC-3 cells, lymphoma derived MT-4 cells and a normal diploid lung cell line MRC-5. HepG2 and PC-3 cells used were adapted to grow in glucose-free galactose-containing medium. These cells have a relatively higher sensitivity to inhibitors of mitochondrial oxidative phosphorylation compared to the same cells maintained in standard glucose-containing culture medium (Marroquin et al., Toxicol. Sci. 2007; 97 (2):539-47). Cell viability was determined by measuring intracellular ATP levels following five days of continuous incubation with test compounds.
(§3) The human hepatoma Huh-7 cell line was obtained from ReBLikon GmbH (Mainz, Germany) {20879}. The MT-4 cell line (HTLV-1 transformed, human T lymphoblastoid cells) was obtained from the NIH AIDS Reagent program (Bathesda, MD). The human hepatoblastoma cell line HepG2, human prostate carcinoma cell line PC-3, and normal fetal lung derived MRC-5 cells were obtained from the American Type Culture Collection (ATCC, Manassas, VA).
(§4) Huh-7 cells were maintained in Dulbecco's Modified Eagle Medium (DMEM) supplemented with 10% fetal bovine serum (FBS, Hyclone, Logan, UT), 1% non-essential amino acids (Gibco, Carlsbad, CA). PC-3 and HepG2 cells were adapted to grow in 0.2% galactose-containing, glucose-free Dulbecco's Modified Eagle Medium (DMEM) supplemented with 10% fetal bovine serum (FBS, Hyclone, Logan, UT), 1% non-essential amino acids (Gibco, Carlsbad, CA), 1% Pyruvate (Cellgro), 1% Glutamax (Invitrogen, Carlsbad, CA). Galactose-adapted cells were maintained in the same culture medium. MRC-5 cells were maintained in Eagle's Minimum Essential Medium (EMEM) supplemented with 10% fetal bovine serum (FBS, Hyclone, Logan, UT). MT-4 cells were maintained in RPMI-1640 supplemented with 10% fetal bovine serum (FBS, Hyclone, Logan, UT). All cell culture media were also supplemented with 100 Units/mL penicillin, 100 μg/mL streptomycin (Gibco).
(§5) Using a Biotek uFlow Workstation (Biotek, Winooski, VT), 1500 HepG2, 1500 PC-3, 500 Huh7 or 1500 MRC-5 cells in 90 μL of culture media were dispensed into each well of black polystyrene tissue culture-treated 384-well plates. Plated cells were incubated for 24 hours in an incubator at 37° C., 5% CO2 and 90% humidity. Compound serial dilutions were performed in 100% DMSO in 384-well polypropylene (high recovery) plates on a Biomek FX Workstation (Beckman Coulter, Fullerton, CA). After 3-fold serial dilutions, 0.4 μL of compounds were transferred into 384-well plates containing cells using a Velocity 11 system equipped with a Bravo 384-well pipettor. The DMSO concentration in the final assay plates was 0.44% (v/v). Cells were incubated with compound(s) for five days at 37° C. Puromycin (44 μM final concentration) and DMSO (0.44%, v/v) were used as a positive and negative controls, respectively
(§6) At the end of the incubation period the cytotoxicity assay was performed as follows: Media from 384-well cell culture plates were aspirated with a Biotek EL405 plate-washer (Biotek) and cells were washed with 100 μL PBS once. Twenty microliters of Cell Titer Glo (Promega, Madison, WI) was added to each well of the plates with a Biotek uFlow liquid dispenser. Plates were incubated for 15 minutes at room temperature before luminescence was measured with a Perkin Elmer Envision Plate Reader (Perkin Elmer, Waltham, MA).
(§7) CC50 values were defined as the compound concentration that caused a 50% decrease in luminescence signal, and were calculated by non-linear regression using Pipeline Pilot software by applying a four parameter fit equation (Accelrys, San Diego, CA). Individual CC50 values are listed as μM concentrations.
(In general: Cellular ATP, detected with luciferase, serves as a proxy for viable cell number.)

For a further series, the system named is IL12p40. As to the kind of experiment: PBMC cytokine profiling assay, IL12-p40 induction. To be noted: human PBMCs, 24 hours incubation. The format is cell-based. In short, it runs like this:
as §1

The next series relates to TNFα. As to the kind of experiment: PBMC cytokine profiling assay, TNFα induction. The format is cell-based. As to conditions: human PBMCs, 24 hours incubation. In short, it runs like this: as §1
In the next series the test system is Huh-7 cells. As to the kind of experiment: Cytotoxicity assay, Huh-7 cells, Cell Titer Glo, 5 days. The format is cell-based, human. To be noted: Huh-7, five days incubation, intracellular ATP; read-out: CC50 HUH7 CTG 5D.
Excerpt: as §2, §3, §4, §5, §6, §7

A value given as a limit tells only on which side of the number the result lay.

As a reminder, the AC50 is the concentration at which the activity in the assay is half-maximal. Lower therefore signals activity at low concentration. As usually defined, the CC50 is the concentration that lowers cell viability or growth by half. With `CCCC[C@@](C)(Nc1nc(N)nc2cc(F)cnc12)C(C)O` (single isomer, unassigned) [Example 95], the half-maximal activity concentration (AC50) with IFNα is greater than 50 µM; with IL12p40, 0.15 µM; with TNFα, 0.15 µM. Also, the CC50 with MRC-5 cells was determined as 44.4 µM.
In the case of `CCCCC(CC)(CO)Nc1nc(N)nc2cccnc12` (stereo not drawn) [Example 85, 2-((2-aminopyrido[3,2-d]pyrimidin-4-yl)amino)-2-ethylhexan-1-ol], the AC50 was 4 µM in the series with IFNα (Homo sapiens, PBMC, 24 h); 0.8 µM with IL12p40 (Homo sapiens, PBMC, 24 h); 0.86 µM in the series on TNFα (Homo sapiens, PBMC, 24 h).
For `CCCC[C@@H](Nc1nc(N)nc2cccnc12)[C@H](C)O` [Example 86], the AC50 with IFNα is 37.4 µM; in the series on IL12p40, 2.4 µM; with TNFα, 2.9 µM.
As for `CCCC[C@@H](Nc1nc(N)nc2cc(F)cnc12)[C@H](C)O` [Example 87, (2S,3R)-3-((2-amino-7-fluoropyrido[3,2-d]pyrimidin-4-yl)amino)heptan-2-ol], the AC50 with IFNα (Homo sapiens, PBMC, 24 h) was greater than 50 µM; in the series with IL12p40 (Homo sapiens, PBMC, 24 h) it was 4.5 µM; in the series on TNFα (Homo sapiens, PBMC, 24 h), 5 µM.
For `CCCC[C@@H](Nc1nc(N)nc2cccnc12)[C@@H](O)C(F)(F)F` [Example 89, (2R,3R)-3-((2-aminopyrido[3,2-d]pyrimidin-4-yl)amino)-1,1,1-trifluoroheptan-2-ol] the same measures were greater than 50 µM, 1.7 µM and 2.2 µM.
As for `CCCC[C@@H](Nc1nc(N)nc2cccnc12)C(CF)NC(C)=O` (stereo partly drawn) [Example 91, N-((3R)-3-((2-aminopyrido[3,2-d]pyrimidin-4-yl)amino)-1-fluoroheptan-2-yl)acetamide], the AC50 was greater than 50 µM in the series with IFNα (Homo sapiens, PBMC, 24 h); 1.9 µM in the series with IL12p40 (Homo sapiens, PBMC, 24 h); 2 µM with TNFα (Homo sapiens, PBMC, 24 h).
For `CCCC[C@](C)(CO)Nc1nc(N)nc2cc(F)cnc12` [Example 98, (R)-2-((2-amino-7-fluoropyrido[3,2-d]pyrimidin-4-yl)amino)-2-methylhexan-1-ol] the same measures were 134 µM, 0.23 µM and 0.24 µM.
Taken in the same sequence, the figures for `Nc1nc(N[C@@H](CO)CCCC(F)(F)F)c2ncccc2n1` [Example 99, (R)-2-((2-aminopyrido[3,2-d]pyrimidin-4-yl)amino)-6,6,6-trifluorohexan-1-ol] were greater than 50 µM, 3.6 µM and 3.4 µM.
With `CCCC[C@H](CCO)Nc1nc(N)nc2cccnc12` [Example 100, (R)-3-((2-aminopyrido[3,2-d]pyrimidin-4-yl)amino)heptan-1-ol], the AC50 amounted to 4.6 µM in the series on IFNα (Homo sapiens, PBMC, 24 h); 3.5 µM in the series with IL12p40 (Homo sapiens, PBMC, 24 h); 3.8 µM with TNFα (Homo sapiens, PBMC, 24 h).
For `CCCC[C@@H](Nc1nc(N)nc2cc(F)cnc12)C(O)CF` (stereo partly drawn) [Example 102, (3R)-3-((2-amino-7-fluoropyrido[3,2-d]pyrimidin-4-yl)amino)-1-fluoroheptan-2-ol], the half-maximal cytotoxic concentration (CC50) in the series with Huh-7 cells and in the series with MRC-5 cells was 44.4 µM each time. In addition, the concentration at half-maximal activity (AC50) was greater than 50 µM with IFNα (Homo sapiens, PBMC, 24 h); 0.76 µM with IL12p40 (Homo sapiens, PBMC, 24 h); 0.81 µM in the series with TNFα (Homo sapiens, PBMC, 24 h).
As for `CCCCC(Nc1nc(N)nc2cccnc12)C(C)O` (stereo not drawn) [Example 103, 3-((2-aminopyrido[3,2-d]pyrimidin-4-yl)amino)heptan-2-ol], the AC50 worked out at 10.3 µM in the series on IFNα; 2.6 µM in the series with IL12p40 (Homo sapiens, PBMC, 24 h); 3.3 µM in the series with TNFα (Homo sapiens, PBMC, 24 h).
As for `CCCCC(Nc1nc(N)nc2cccnc12)C(C)O` (stereo not drawn) [Example 104, 3-((2-aminopyrido[3,2-d]pyrimidin-4-yl)amino)heptan-2-ol], the concentration at half-maximal activity (AC50) is 4.2 µM in the series on IFNα, 1.9 µM in the series with IL12p40 and 2.1 µM in the series with TNFα.
For `CCCC[C@H](CO)Nc1nc(N)nc2cc(OC)cnc12` [Example 105, (R)-2-((2-amino-7-methoxypyrido[3,2-d]pyrimidin-4-yl)amino)hexan-1-ol], the AC50 with IFNα (Homo sapiens, PBMC, 24 h) was greater than 50 µM; in the series on IL12p40 (Homo sapiens, PBMC, 24 h), 3.4 µM; in the series with TNFα (Homo sapiens, PBMC, 24 h) it was 3.5 µM.
Taken in the same sequence, the figures for `CCCC[C@H](CO)Nc1nc(N)nc2cc(OCC)cnc12` [Example 106, (R)-2-((2-amino-7-ethoxypyrido[3,2-d]pyrimidin-4-yl)amino)hexan-1-ol] were greater than 50 µM, 10.2 µM and 13.8 µM.
Take `CCCC[C@H](CO)Nc1nc(N)nc2cc(C)cnc12` [Example 107, (R)-2-((2-amino-7-methylpyrido[3,2-d]pyrimidin-4-yl)amino)hexan-1-ol]: the concentration at half-maximal activity (AC50) is greater than 50 µM with IFNα (Homo sapiens, PBMC, 24 h); 1.8 µM in the series with IL12p40 (Homo sapiens, PBMC, 24 h); 2.8 µM in the series on TNFα (Homo sapiens, PBMC, 24 h).
Taken in the same sequence, the figures for `C=CC[C@H](CO)Nc1nc(N)nc2cccnc12` [Example 108, (R)-2-((2-aminopyrido[3,2-d]pyrimidin-4-yl)amino)pent-4-en-1-ol] were greater than 50 µM, 22 µM and 38.7 µM.
Taken in the same sequence, the figures for `CC(C)(O)CC[C@H](CO)Nc1nc(N)nc2cccnc12` [Example 110] were 32.6 µM, 32.6 µM and 32.6 µM.
Turning to `CCCCC[C@](C)(CO)Nc1nc(N)nc2cc(F)cnc12` [Example 111, (R)-2-((2-amino-7-fluoropyrido[3,2-d]pyrimidin-4-yl)amino)-2-methylheptan-1-ol], the half-maximal activity concentration (AC50) in the series on IFNα was 19.8 µM; in the series with IL12p40 (Homo sapiens, PBMC, 24 h), 0.47 µM; in the series on TNFα (Homo sapiens, PBMC, 24 h) it was 0.61 µM.
As to `CCCCC[C@](C)(CO)Nc1nc(N)nc2cc(F)cnc12` [Example 112, (R)-2-((2-amino-7-fluoropyrido[3,2-d]pyrimidin-4-yl)amino)-2-methylheptan-1-ol], the figures for the half-maximal activity concentration (AC50) with IFNα, in the series on IL12p40 and with TNFα were greater than 50 µM, 0.33 µM and 0.36 µM, respectively.
In the case of `COc1cnc2c(NC(C)(C)C)nc(N)nc2c1` [Example 113, N^4-(tert-butyl)-7-methoxypyrido[3,2-d]pyrimidine-2,4-diamine], the AC50 with IFNα (Homo sapiens, PBMC, 24 h) is greater than 50 µM; in the series with IL12p40 (Homo sapiens, PBMC, 24 h) it was 13.6 µM; in the series on TNFα (Homo sapiens, PBMC, 24 h) it was 12.5 µM.
Taken in the same sequence, the figures for `CCCC[C@](C)(CO)Nc1nc(N)nc2cc(N)cnc12` [Example 115, (R)-2-((2,7-diaminopyrido[3,2-d]pyrimidin-4-yl)amino)-2-methylhexan-1-ol] were 9 µM, 0.027 µM and 0.024 µM.
`CCCCC[C@](C)(CNC(C)=O)Nc1nc(N)nc2cccnc12` [Example 116, (R)—N-(2-((2-aminopyrido[3,2-d]pyrimidin-4-yl)amino)-2-methylheptyl)acetamide]: the AC50 in the series with IFNα (Homo sapiens, PBMC, 24 h) is greater than 50 µM; with IL12p40 (Homo sapiens, PBMC, 24 h), 0.11 µM; in the series with TNFα (Homo sapiens, PBMC, 24 h), 0.036 µM.
For `CCCCC[C@](C)(CNC(C)=O)Nc1nc(N)nc2cc(Cl)cnc12` [Example 117, (R)—N-(2-((2-amino-7-chloropyrido[3,2-d]pyrimidin-4-yl)amino)-2-methylheptyl)acetamide] the same measures were greater than 50 µM, 0.33 µM and 0.37 µM.
Taken in the same sequence, the figures for `CCCC[C@](C)(CN[C@@H](C)C(F)(F)F)Nc1nc(N)nc2cccnc12` [Example 118, N^4—((R)-2-methyl-1-(((S)-1,1,1-trifluoropropan-2-yl)amino)hexan-2-yl)pyrido[3,2-d]pyrimidine-2,4-diamine] were greater than 50 µM, 9.1 µM and 9.3 µM.
